Results on three molecules are retold here after patent publication US11484599B2, “Polymer conjugate vaccines” (The University of Chicago, priority 2015, dated 2022).

Data set [1] concerns bone marrow derived dendritic cells (BMDCs). Briefly: Viability / toxicity in treated BMDCs. Format: cell-based. Conditions: 10 μM. The source says:
Given that DCs are the primary target for the polymer-conjugates, Applicants treated bone marrow derived dendritic cells (BMDCs) with various concentrations of TLR7-MA, p(man-TLR), or the synthetic oligonucleotide CpG, a powerful TLR-9 agonist.

In the next data set the target is T1, TLR7 (Homo sapiens, UniProt Q9NYK1).
T1 sequence (Q9NYK1 27-1049): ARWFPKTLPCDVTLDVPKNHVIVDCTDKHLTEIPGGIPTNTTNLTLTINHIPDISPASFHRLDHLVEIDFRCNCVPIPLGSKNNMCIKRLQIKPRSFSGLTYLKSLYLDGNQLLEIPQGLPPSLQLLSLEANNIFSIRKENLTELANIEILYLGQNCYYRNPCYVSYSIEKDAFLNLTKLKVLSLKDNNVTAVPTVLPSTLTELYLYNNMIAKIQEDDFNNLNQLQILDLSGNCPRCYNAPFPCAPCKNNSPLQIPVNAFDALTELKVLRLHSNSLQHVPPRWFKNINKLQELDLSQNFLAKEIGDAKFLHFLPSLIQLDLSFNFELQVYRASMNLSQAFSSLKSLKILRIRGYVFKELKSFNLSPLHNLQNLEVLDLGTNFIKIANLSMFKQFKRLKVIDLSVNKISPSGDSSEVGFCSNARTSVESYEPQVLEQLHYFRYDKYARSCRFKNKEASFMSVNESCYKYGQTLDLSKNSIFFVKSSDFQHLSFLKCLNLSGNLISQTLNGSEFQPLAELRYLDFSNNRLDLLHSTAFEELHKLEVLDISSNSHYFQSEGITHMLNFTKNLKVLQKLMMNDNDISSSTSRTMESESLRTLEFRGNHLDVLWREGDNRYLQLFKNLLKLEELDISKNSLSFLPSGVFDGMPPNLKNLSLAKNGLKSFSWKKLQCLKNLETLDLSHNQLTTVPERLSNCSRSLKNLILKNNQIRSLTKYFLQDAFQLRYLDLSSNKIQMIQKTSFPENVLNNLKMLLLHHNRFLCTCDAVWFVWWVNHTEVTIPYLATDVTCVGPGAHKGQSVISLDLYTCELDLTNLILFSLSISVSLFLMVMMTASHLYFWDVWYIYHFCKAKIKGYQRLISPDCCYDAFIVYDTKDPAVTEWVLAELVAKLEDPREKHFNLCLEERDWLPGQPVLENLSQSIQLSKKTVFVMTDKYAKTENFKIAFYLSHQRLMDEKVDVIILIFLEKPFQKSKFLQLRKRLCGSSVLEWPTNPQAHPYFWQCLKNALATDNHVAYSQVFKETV
The data set can be described thus: HEK-Blue TLR7-activation reporter cell assay. Conditions: media with 2.0 μM agonist (polymer: 2.0 μM of TLR7-MA in polymeric form), 12 h.

Data set [2] concerns lymph node resident DC subsets. Briefly: Uptake of fluorescently labeled OVA by lymph node DC subsets after i.d. injection. Format: in vivo, mice. Particulars: 12 h. As to the method: Mice were treated with an intradermal injection of fluorescently labeled OVA or fluorescently labeled OVA conjugated to either p(Man) or p(Man-TLR). After 12 h, the lymph nodes of the animals were harvested and the cells of the lymph nodes were analyzed for fluorescently labeled OVA content via flow cytometry. Conjugation of OVA to p(Man-TLR) increases the uptake of OVA by CD8+ cross-presenting DCs (a.), CD4+ activating DCs (b.), CD4−/CD8− lymph node resident DCs (c.), and conventional dermal DCs (d.).
It is contemplated that conjugating p(Man-TLR) to antigens will improve their uptake by DCs and increased DC activation. […] After 12 h, the lymph node resident DC subsets of these animals were analyzed for fOVA.

Data set [3] has as its system circumsporozite protein (CSP) from Plasmodium falciparum. Briefly: Example 12: vaccination with malaria antigen CSP formulations, cellular and humoral response. Format: in vivo, mice. As to the method:
FIG. 17: To characterize the response to an actual vaccinal antigen, and to compare to an advanced clinical adjuvant, the inventors made the polymer conjugate formulation with the P. falciparum antigen CSP (the full-length protein).
FIG. 18: To characterize humoral responses to the CSP-p(Man-TLR) polymer conjugate formulation, Tfh cells were characterized in the spleen and IgG concentrations were measured in the blood.
The inventors benchmarked the performance of antigen-p(Man-TLR) conjugates against other vaccine adjuvant formulations that have been reported to produce effective immune responses, using a malaria antigen, specifically circumsporozite protein (CSP) from Plasmodium falciparum. Mice were treated on days 0 and 21 via intradermal injection into the 4 footpads with CSP-p(Man-TLR), CSP and MPLA/QS-21 liposomes (AS01E), CSP and the adjuvant R848, CSP and poly(I:C), or saline (Vehicle). AS01E is used in a clinical malaria vaccine formulation. All animals treated with formulations containing CSP received 10 μg of CSP. Animals treated with CSP-p(Man-TLR) received 20 μg TLR agonist in the polymeric form. Animals treated with AS01E received 2.5 μg of QS21. Animals treated with CSP and R848 were treated with 20 μg of R848. Animals treated with CSP and poly(I:C) received 15 μg poly(I:C). […] CSP-p(Man-TLR) induced a robust humoral response.

Another data set concerns CSP peptide stretches. Briefly: Breadth of IgG response on arrays of peptides from the sequence of CSP. Format: in vivo, mice.

In the case of `C=C(C)C(=O)NCCOC(=O)NCc1ccc(Cn2c(COCC)nc3c(N)nc4ccccc4c32)cc1` [TLR7-MA, 2-methacrylamidoethyl 4-((4-amino-2-(ethoxymethyl)-1H-imidazo[4,5-c]quinolin-1-yl)methyl)benzylcarbamate], the “cell viability / toxicity” value in data set [1] is listed as “no significant decrease in viability”. Also, the “increase in TLR7 activation” value on TLR7 stood at 4 fold.
For “fOVA-p(Man-TLR): fluorescently labeled Ovalbumin (fOVA) conjugated to p(Man-TLR)”, the “fOVA positive CD8+ cross presenting DCs vs fOVA” value in data set [2] (FIG. 9A) was “More than twice as many”. For the same molecule, the “increase in number of CD4 activating DCs positive for fOVA vs fOVA” value in data set [2] (FIG. 9B) is given as 3 fold. In addition, the “targeting of double negative DCs and dermal conventional DCs vs free fOVA” value in data set [2] (FIG. 9C-D) was “able to target both double negative DCs and dermal conventional DCs”. Moreover, the “OVA uptake by DCs vs fOVA” value in data set [2] (lymph node DCs) is reported as “took up significantly more OVA”.

B1: CSP-p(Man-TLR): P. falciparum circumsporozite protein (CSP, full-length) conjugated to p(Man-TLR) (conjugate, UniProt P02893 1-412, looked up)
chain: MMRKLAILSVSSFLFVEALFQEYQCYGSSSNTRVLNELNYDNAGTNLYNELEMNYYGKQENWYSLKKNSRSLGENDDGNNNNGDNGREGKDEDKRDGNNEDNEKLRKPKHKKLKQPGDGNPDPNANPNVDPNANPNVDPNANPNVDPNANPNANPNANPNANPNANPNANPNANPNANPNANPNANPNANPNANPNANPNANPNANPNVDPNANPNANPNANPNANPNANPNANPNANPNANPNANPNANPNANPNANPNANPNANPNANPNANPNANPNANPNANPNKNNQGNGQGHNMPNDPNRNVDENANANNAVKNNNNEEPSDKHIEQYLKKIKNSISTEWSPCSVTCGNGIQVRIKPGSANKPKDELDYENDIEKKICKMEKCSSVFNVVNSSIGLIMVLSFLFLN
modifications: full-length p(Man-TLR) polymer conjugate
Consider B1, for which, in data set [3] (days 0 and 21), the “IFNγ+CD8+ cells in the lymph nodes vs CSP and R848 and CSP and AS01E” value was “induced more IFNγ+CD8+ cells in the lymph nodes”; the “splenic T follicular helper cells and total IgG response in the blood vs other treatments” value is “generated more splenic T follicular helper cells and a more robust total IgG response in the blood”. In addition, in data set [3] (intradermal, 4 footpads, days 0 and 21, 10 μg CSP, 20 μg TLR agonist), the “IFNγ+ and TNFα+ CD4+ T cells in the spleen vs other therapies” value was “induces more IFNγ+ and TNFα+ cCD4+ T cells in the spleen”. Besides, in the data set with CSP peptide stretches (FIG. 21), the “highest value in the plot of antibody response to CSP regions” value is reported as “approx. 60000 units”. Besides, in the data set with CSP peptide stretches (antibodies binding to CSP peptide arrays), the “breadth of IgG response” value was “induced a broader and/or qualitatively distinct IgG response”.
